Laboratory results as given in US5831001A, “Treatment of herpesvirus infection” (priority 1995, dated 1998).

How the values were obtained:
HSV = experiment: plaque reduction assay, inhibition of HSV replication; format: cell-based; conditions: for Virus titer: pretreated Veto cell monolayers, plaques counted after 2 to 3 days
Experimental: Selected compounds were first formulated as 10 mM stocks in water for in vitro and call culture procedures. Then stocks are then diluted into buffers used for specific assays, or into cell culture media. For animal studies peptides are diluted into phosphate buffer saline,
The following procedures were then used to determine inhibitory effects of compounds on the replication of HSV. First, confluent monolayers of Veto cells (continuous passage cell line derived from African Green Monkeys) in 24 well cell culture plates were treated with specified concentrations of peptide for 25 hours. This was accomplished by diluting the stock peptide solution in growth medium used to overlay the monolayers, i.e. growth medium containing 10% fetal bovine serum and 10 ug/ml gentamicin in Dulbecco's MEM (DMEM).
Virus was then allowed to adsorb for 1 hour at 37° C. The virus inoculum was removed and the monolayers are overlayed with DMEM containing 2% FBS, 10 ug/ml gentamicin and specified concentration of peptide. Virus was next allowed to replicate for 2 to 3 days until the plaques were judged to be well developed, and then the monolayers were fixed and stained with a solution of 1% crystal violet in 1% formaldehyde, 70% ethanol. Finally, plaques (each representing a single viable virion) were counted and checked microscopically.

inhibition of host cell replication (Veto cells): no apparent inhibition
Structure (SMILES): CC(=O)N[C@H](CCCNC(=N)N)C(=O)N[C@H](CCCNC(=N)N)C(=O)N[C@H](CCCNC(=N)N)C(=O)N[C@H](CCCNC(=N)N)C(=O)N[C@H](CCCNC(=N)N)C(=O)N[C@H](CCCNC(=N)N)C(=O)N[C@H](CCCNC(=N)N)C(=O)N[C@H](CCCNC(=N)N)C(=O)N[C@H](CCCNC(=N)N)C(N)=O [compound 4C, acetyl-[D-Arg]9 -NH2]
inhibition of viral replication (HSV; at the concentration tested (5uM)): ≥ 95% | Virus titer (HSV; peptide concentration 0.5 uM): 30,000 pfu/ml | Virus titer (HSV; peptide concentration 5.0 uM): 11,000 pfu/ml
